In patent US20150105252A1, “SUBSTITUTED PYRAZOLES AS HERBICIDES” (E I DU PONT DE NEMOURS AND COMPANY, priority 2013, published 2015):

Key:
barnyardgrass [1] = test: Test B flood; type: in vivo, Echinochloa crus-galli; conditions: 250 g ai/ha, visual rating on 0 to 100 scale (0 no effect, 100 complete control), 13 to 15 days
Method in brief: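 Each compound is applied to the floodwater of pots holding 2-leaf seedlings, water standing 3 cm over the soil throughout. Plants stay in a greenhouse 13 to 15 days before visual scoring against controls from 0 (no effect) to 100 (complete control).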

corn = test: Test C postemergence; type: in vivo, Zea mays; conditions: for Plant response rating (scale of 0 to 100 where 0 is no effect and 100 is complete control), Corn: 31 g ai/ha, visually evaluated after 13 to 15 days; for Corn plant response rating / Plant response rating, Corn: postemergence; for Corn plant response rating: 62 g ai/ha, scale 0 to 100
Method in brief: (§1)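 Visual control ratings on a 0–100 scale (100 = complete control) made against untreated controls after 13 to 15 days in greenhouse. Compounds applied in surfactant-containing solvent mixture, either preemergence to loam/sand-sown seeds or postemergence to 1- to 4-leaf plants (2–18 cm) in peat medium.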

lambsquarters = test: Test C postemergence; type: in vivo, Chenopodium album; conditions: for Plant response rating (scale of 0 to 100 where 0 is no effect and 100 is complete control), Lambsquarters: 31 g ai/ha, visually evaluated after 13 to 15 days; for Lambsquarters plant response rating / Plant response rating, Lambsquarters: postemergence; for Lambsquarters plant response rating: 62 g ai/ha, scale 0 to 100
Method in brief: as §1

wheat [2] = test: Test C postemergence; type: in vivo, Triticum aestivum; conditions: for Plant response rating, Wheat / Wheat plant response rating: postemergence; for Wheat plant response rating: scale 0 to 100
Method in brief: as §1

chickweed = test: Test C postemergence; type: in vivo, Stellaria media; conditions: for Plant response rating (scale of 0 to 100 where 0 is no effect and 100 is complete control), Chickweed: 31 g ai/ha, visually evaluated after 13 to 15 days; for Chickweed plant response rating / Plant response rating, Chickweed: postemergence; for Chickweed plant response rating: 62 g ai/ha, scale 0 to 100
Method in brief: as §1

foxtail, giant = test: Test C postemergence; type: in vivo, Setaria faberii; conditions: for Plant response rating (scale of 0 to 100 where 0 is no effect and 100 is complete control), Foxtail, Giant: 31 g ai/ha, visually evaluated after 13 to 15 days; for Foxtail, Giant plant response rating / Plant response rating, Foxtail, Giant: postemergence; for Foxtail, Giant plant response rating: 62 g ai/ha, scale 0 to 100
Method in brief: as §1

velvetleaf = test: Test C preemergence; type: in vivo, Abutilon theophrasti
Method in brief: as §1

crabgrass, large = test: Test A postemergence; type: in vivo, Digitaria sanguinalis
Method in brief: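 Both timings tested concurrently in loam/sand soil: preemergence by directed soil spray, postemergence on plants of 2–10 cm at the one- to two-leaf stage. Greenhouse holding period was approximately 10 days before visual injury assessment (0–100, 0 = no effect).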

morningglory = test: Test C postemergence; type: in vivo, Ipomoea coccinea; conditions: for Morningglory plant response rating / Plant response rating, Morningglory: postemergence; for Morningglory plant response rating: 62 g ai/ha, scale 0 to 100
Method in brief: as §1

kochia = test: Test C postemergence; type: in vivo, Kochia scoparia; conditions: for Plant response rating (scale of 0 to 100 where 0 is no effect and 100 is complete control), Kochia: 31 g ai/ha, visually evaluated after 13 to 15 days; for Kochia plant response rating / Plant response rating, Kochia: postemergence; for Kochia plant response rating: 62 g ai/ha, scale 0 to 100
Method in brief: as §1

wheat [3] = test: Test C preemergence; type: in vivo, Triticum aestivum; conditions: preemergence
Method in brief: as §1

barnyardgrass [4] = test: Test C postemergence; type: in vivo, Echinochloa crus-galli; conditions: for Plant response rating (scale of 0 to 100 where 0 is no effect and 100 is complete control), Barnyardgrass: 31 g ai/ha, visually evaluated after 13 to 15 days; for Barnyardgrass plant response rating / Plant response rating, Barnyardgrass: postemergence; for Barnyardgrass plant response rating: 62 g ai/ha, scale 0 to 100
Source text: Seeds of plant species selected from blackgrass (Alopecurus myosuroides), ryegrass, Italian (Italian ryegrass, Lolium multiflorum), wheat (winter wheat, Triticum aestivum), galium (catchweed bedstraw, Galium aparine), corn (Zea mays), crabgrass, large (large crabgrass, Digitaria sanguinalis), foxtail, giant (giant foxtail, Setaria faberii), johnsongrass (Sorghum halepense), lambsquarters (Chenopodium album), morningglory (Ipomoea coccinea), nutsedge, yellow (yellow nutsedge, Cyperus esculentus), pigweed (redroot pigweed, Amaranthus retroflexus), ragweed (common ragweed, Ambrosia elation), soybean (Glycine max), barnyardgrass (Echinochloa crus-galli), oilseed rape (Brassica napus), waterhemp (common waterhemp, Amaranthus rudis), oat, wild (wild oat, Avena fatua), kochia (Kochia scoparia), Surinam grass (Brachiaria decumbens), foxtail, green (green foxtail, Setaria viridis), goosegrass (Eleusine indica), bromegrass, downy (downy bromegrass, Bromus tectorum), nightshade (eastern black nightshade, Solanum ptycanthum), cocklebur (common cocklebur, Xanthium strumarium), cupgrass, woolly (woolly cupgrass, Eriochloa villosa), bermudagrass (Cynodon dactylon), sunflower, (common oilseed sunflower, Helianthus annuus), Russian thistle (Salsola kali), and velvetleaf (Abutilon theophrasti) were planted into a blend of loam soil and sand and treated preemergence with test chemicals formulated in a non-phytotoxic solvent mixture which included a surfactant.
At the same time, plants selected from these crop and weed species and also chickweed (common chickweed, Stellaria media), canarygrass (littleseed canarygrass, Phalaris minor), and deadnettle (henbit deadnettle, Lamium amplexicaule), were planted in pots containing Redi-Earth® planting medium (Scotts Company, 14111 Scottslawn Road, Marysville, Ohio 43041) comprising spaghnum peat moss, vermiculite, wetting agent and starter nutrients and treated with postemergence applications of test chemicals formulated in the same manner. Plants ranged in height from 2 to 18 cm (1- to 4-leaf stage) for postemergence treatments. Treated plants and controls were maintained in a greenhouse for 13 to 15 days, after which time all species were compared to controls and visually evaluated. Plant response ratings, summarized in Table C, are based on a scale of 0 to 100 where 0 is no effect and 100 is complete control. A dash (-) response means no test result.

[5] = 250 g ai/ha, scale 0 to 100 (0 no effect, 100 complete control)
[6] = 125 g ai/ha, scale 0 to 100, 0 no effect, 100 complete control
[7] = postemergence, 125 g ai/ha, about 10 days, visual rating on 0 to 100 scale (0 no effect, 100 complete control)
[8] = Postemergence, 31 g ai/ha, visually evaluated after 13 to 15 days

With CCCc1cc(C(=O)NC2CC2)nn1Cc1cc(C(F)(F)F)nn1C [Compound 202] the “Plant response rating, Barnyardgrass” value (barnyardgrass [1]) was 30, the “Plant response rating (scale of 0 to 100 where 0 is no effect and 100 is complete control), Corn” value (corn; Postemergence) was 5 and the “Corn plant response rating” value (corn) was 10. The “Plant response rating, Corn” value (corn; [5]) was 25, the “Plant response rating, Corn” value (corn; [6]) was 15 and the “Plant response rating (scale of 0 to 100 where 0 is no effect and 100 is complete control), Lambsquarters” value (lambsquarters; Postemergence) was 70. For the same compound, the “Lambsquarters plant response rating” value (lambsquarters) was 80, the “Plant response rating, Lambsquarters” value (lambsquarters; [5]) was 90 and the “Plant response rating, Lambsquarters” value (lambsquarters; [6]) was 85. The “Plant response rating, Wheat” value (wheat [2]; [5]) was 5, the “Wheat plant response rating” value (wheat [2]) was 5 and the “Plant response rating (scale of 0 to 100 where 0 is no effect and 100 is complete control), Chickweed” value (chickweed; Postemergence) was 75. The “Chickweed plant response rating” value (chickweed) was 80, the “Plant response rating, Chickweed” value (chickweed; [5]) was 85 and the “Plant response rating, Chickweed” value (chickweed; [6]) was 80. For the same compound, the “Plant response rating (scale of 0 to 100 where 0 is no effect and 100 is complete control), Foxtail, Giant” value (foxtail, giant; Postemergence) was 5, the “Foxtail, Giant plant response rating” value (foxtail, giant) was 10 and the “Plant response rating, Foxtail, Giant” value (foxtail, giant; [5]) was 35. For the same compound, the “Plant response rating, Foxtail, Giant” value (foxtail, giant; [6]) was 10, the “Velvetleaf plant response rating” value (velvetleaf; preemergence, 31 g ai/ha, visual rating, scale 0 to 100 (0 no effect, 100 complete control), 13 to 15 days) was 60 and the “Velvetleaf plant response rating” value (velvetleaf; preemergence, 62 g ai/ha, scale 0 to 100 (0 no effect, 100 complete control), 13 to 15 days) was 100. The “Plant response rating, Velvetleaf” value (velvetleaf; preemergence, 125 g ai/ha, 13 to 15 days, scale 0 to 100, 0 = no effect, 100 = complete control) was 100, the “Velvetleaf plant response rating” value (velvetleaf; preemergence, 250 g ai/ha, scale 0 to 100, 0 is no effect, 100 is complete control) was 100 and the “Crabgrass, Large plant response rating” value (crabgrass, large; Postemergence, 500 g ai/ha, 0 to 100 scale (0 no effect, 100 complete control)) was 100. The “Crabgrass, Large plant response rating” value (crabgrass, large; [7]) was 90, the “Plant response rating (scale of 0 to 100 where 0 is no effect and 100 is complete control), Morningglory” value (morningglory; [8]) was 35 and the “Morningglory plant response rating” value (morningglory) was 40. For the same compound, the “Plant response rating, Morningglory” value (morningglory; [5]) was 98, the “Plant response rating, Morningglory” value (morningglory; [6]) was 90 and the “Plant response rating (scale of 0 to 100 where 0 is no effect and 100 is complete control), Kochia” value (kochia; Postemergence) was 85. For the same compound, the “Kochia plant response rating” value (kochia) was 90, the “Plant response rating, Kochia” value (kochia; [5]) was 90 and the “Plant response rating, Kochia” value (kochia; [6]) was 90. For the same compound, the “Wheat plant response rating” value (wheat [3]; 31 g ai/ha, visual rating, scale 0 to 100 (0 no effect, 100 complete control), 13 to 15 days) was 0, the “Wheat plant response rating” value (wheat [3]; 62 g ai/ha, scale 0 to 100 (0 no effect, 100 complete control), 13 to 15 days) was 85 and the “Plant response rating, Wheat” value (wheat [3]; 125 g ai/ha, 13 to 15 days, scale 0 to 100, 0 = no effect, 100 = complete control) was 85. For the same compound, the “Wheat plant response rating” value (wheat [3]; 250 g ai/ha, scale 0 to 100, 0 is no effect, 100 is complete control) was 90, the “Plant response rating (scale of 0 to 100 where 0 is no effect and 100 is complete control), Barnyardgrass” value (barnyardgrass [4]; Postemergence) was 10 and the “Barnyardgrass plant response rating” value (barnyardgrass [4]) was 10. The “Plant response rating, Barnyardgrass” value (barnyardgrass [4]; [5]) was 25 and the “Plant response rating, Barnyardgrass” value (barnyardgrass [4]; [6]) was 15.

With CCONC(=O)c1cc(CC)n(Cc2ccnc(C(F)(F)F)c2)n1 [Compound 77] the “Plant response rating, Barnyardgrass” value (barnyardgrass [1]) was 0, the “Plant response rating (scale of 0 to 100), Corn” value (corn; Postemergence, 16 g ai/ha) was 0 and the “Plant response rating (scale of 0 to 100 where 0 is no effect and 100 is complete control), Corn” value (corn; Postemergence) was 0. The “Corn plant response rating” value (corn) was 5, the “Plant response rating, Corn” value (corn; [6]) was 10 and the “Plant response rating (scale of 0 to 100), Lambsquarters” value (lambsquarters; Postemergence, 16 g ai/ha) was 15. The “Plant response rating (scale of 0 to 100 where 0 is no effect and 100 is complete control), Lambsquarters” value (lambsquarters; Postemergence) was 35, the “Lambsquarters plant response rating” value (lambsquarters) was 35 and the “Plant response rating, Lambsquarters” value (lambsquarters; [6]) was 70. The “Plant response rating (scale of 0 to 100), Wheat” value (wheat [2]; Postemergence, 16 g ai/ha) was 0, the “Plant response rating (scale of 0 to 100 where 0 is no effect and 100 is complete control), Wheat” value (wheat [2]; [8]) was 0 and the “Wheat plant response rating” value (wheat [2]; 62 g ai/ha) was 5. For the same compound, the “Plant response rating, Wheat” value (wheat [2]; [6]) was 5, the “Plant response rating (scale of 0 to 100), Chickweed” value (chickweed; Postemergence, 16 g ai/ha) was 50 and the “Plant response rating (scale of 0 to 100 where 0 is no effect and 100 is complete control), Chickweed” value (chickweed; Postemergence) was 50. The “Chickweed plant response rating” value (chickweed) was 55, the “Plant response rating, Chickweed” value (chickweed; [6]) was 60 and the “Plant response rating (scale of 0 to 100), Foxtail, Giant” value (foxtail, giant; Postemergence, 16 g ai/ha) was 5. For the same compound, the “Plant response rating (scale of 0 to 100 where 0 is no effect and 100 is complete control), Foxtail, Giant” value (foxtail, giant; Postemergence) was 5, the “Foxtail, Giant plant response rating” value (foxtail, giant) was 10 and the “Plant response rating, Foxtail, Giant” value (foxtail, giant; [6]) was 20. The “Plant response rating, Velvetleaf” value (velvetleaf; Preemergence, 16 g ai/ha, scale 0 to 100) was 30, the “Velvetleaf plant response rating” value (velvetleaf; preemergence, 31 g ai/ha, scale 0 to 100 (0 no effect, 100 complete control), 13 to 15 days) was 35 and the “Plant response rating, Velvetleaf” value (velvetleaf; preemergence, 62 g ai/ha, 13 to 15 days, scale 0 to 100, 0 = no effect, 100 = complete control) was 60. For the same compound, the “Velvetleaf plant response rating” value (velvetleaf; preemergence, 125 g ai/ha, scale 0 to 100, 0 is no effect, 100 is complete control) was 100, the “Crabgrass, Large plant response rating” value (crabgrass, large; Postemergence, 500 g ai/ha, visual rating after approx. 10 days, 0 to 100 scale (0 no effect, 100 complete control)) was 100 and the “Crabgrass, Large plant response rating” value (crabgrass, large; [7]) was 90. For the same compound, the “Plant response rating (scale of 0 to 100), Morningglory” value (morningglory; Postemergence, 16 g ai/ha) was 10, the “Morningglory plant response rating” value (morningglory) was 20 and the “Plant response rating, Morningglory” value (morningglory; [6]) was 40. For the same compound, the “Plant response rating (scale of 0 to 100), Kochia” value (kochia; Postemergence, 16 g ai/ha) was 40, the “Plant response rating (scale of 0 to 100 where 0 is no effect and 100 is complete control), Kochia” value (kochia; Postemergence) was 40 and the “Kochia plant response rating” value (kochia) was 45. The “Plant response rating, Kochia” value (kochia; [6]) was 70, the “Plant response rating (scale of 0 to 100), Barnyardgrass” value (barnyardgrass [4]; Postemergence, 16 g ai/ha) was 0 and the “Plant response rating (scale of 0 to 100 where 0 is no effect and 100 is complete control), Barnyardgrass” value (barnyardgrass [4]; Postemergence) was 0. For the same compound, the “Barnyardgrass plant response rating” value (barnyardgrass [4]) was 5 and the “Plant response rating, Barnyardgrass” value (barnyardgrass [4]; [6]) was 20.
